Test results: article PMC6150237, “Study of Absorption Characteristics of the Total Saponins from Radix Ilicis Pubescentis in an In Situ Single-Pass Intestinal Perfusion (SPIP) Rat Model by Using Ultra Performance Liquid Chromatography (UPLC)” (Molecules : A Journal of Synthetic Chemistry and Natural …, 2017)
Entries after “also recorded” stand apart in the source; their conditions may differ.

Tests used:
[1] = system: rat small intestine (duodenum, jejunum, ileum); test: In situ single-pass intestinal perfusion (SPIP), saponins administrated in MDQ-TS form; format: in vivo; parameters: key: -: no absorption
Procedure: (§1) MDQ-TS perfusion samples at low, middle, and high concentration levels of 1.25, 2.5, and 5.0 mg·mL^−1 were prepared by separately dissolving MDQ-TS in the minimum amount of DMSO and diluted with K-R buffer solution. The amount of DMSO was 0.5% in the final perfusion solutions. C1, C2, C3, C4, DC1, and DC2 perfusion samples with the concentration equivalent to the amount contained in 2.5 mg·mL^−1 of MDQ-TS were individually prepared in the same way. Verapamil, amantadine and EDTA were directly dissolved in the MDQ-TS perfusate with terminal concentrations of 200 μmol·L^−1, 2.5 mmol·L^−1, and 2.5 mmol·L^−1, accordingly, and used for investigating the mechanisms involved for absorption.
(§2) In situ single-pass intestinal perfusion (SPIP) studies were performed using an experimental design adapted from the literature with some modifications. Briefly, male Sprague-Dawley rats weighing 180–220 g were acclimatized for at least one week before the experiment, and fasted for 18 h with free access to water before the perfusion experiment. Rats were anesthetized with an intraperitoneal injection of urethane (30 mg·kg^−1 body weight), and kept on a homeothermic blanket to maintain normal body temperature. The abdomen was opened with a midline longitudinal incision, and three segments of rat intestine (duodenum, jejunum, and ileum) of approximately 10 cm each were carefully cannulated on two ends with plastic tubing. Initially, the perfusion solution free of drug (37 °C) was pumped by peristaltic pump (BT100-1F, Longer Pump Co., Baoding, China) through the cannulated segments at a flow rate of 1 mL/min for approximately 30 min in order to clean out any residual debris. Secondly, the perfusion solution containing a known concentration of substance (C1, C2, C3, C4, DC1, DC2, and MDQ-TS) was perfused at 37 °C through the intestinal lumen at a constant flow rate of 0.2 mL/min. The first 20 min of period corresponds to steady state, i.e., when the substance is in equilibrium with the intestinal membrane. After steady state, samples were collected from distal portion of duodenum, jejunum and ileum at 10 min intervals (0–10, 10–20, 20–30, 30–40, 40–50, 50–60 min) in pre-weighted vials. Samples were immediately frozen at −20 °C until analysis by validated UPLC. During the experiment, care was taken to avoid disturbance of the circulatory system and the exposed segment was covered with a piece of sterilized gauze to keep it warm and moist by frequent application of warm (37 °C) saline. The intestinum tenue maintained its viability and intact state without disrupting the blood supply throughout the experimental period. Finally, animals were sacrificed after depth anesthesia by intraperitoneal injection of urethane, according to protocols for euthanasia in experimental animals. After death, the intestinal segment was removed for measurements of length and inside diameter.
(§3) The net water flux in the in situ perfusion studies (water absorption and efflux in the intestinal segment) was determined by gravimetric method. The effective absorption rate constant (Ka) and effective apparent permeability (Papp) of compounds in the intestinal segments were calculated according to the following mathematical expression:(1) Ka=(1−CoutQout/CinQin)Q/V (2) Papp=−Qln(CoutQout/CinQin)/2πrl where Cin and Cout are the concentration of test drug in the effluent perfusate through the inlet and outlet tube (μg·mL^−1), respectively. Qin and Qout represent the inlet and outlet volume of effluent perfusate (mL), respectively. Q is the volume flow rate of perfusion (mL·h^−1). V is the volume of the intestinal segment concerned (mL). 2πrl is the area of the mass transfer surface of intestinal segment concerned (cm^2).

[2] = system: rat small intestine (duodenum, jejunum, ileum); test: In situ single-pass intestinal perfusion (SPIP), saponins administrated in monomer forms; format: in vivo; parameters: key to Papp / Ka: -: no absorption; conditions: monomer form; for Ka / Papp: symbol; for intestinal absorption of monomers: small intestine, result in words
Procedure: as §1, §2, §3

rat duodenum [3] = test: SPIP of MDQ-TS with or without verapamil (P-gp inhibitor); format: in vivo; conditions: MDQ-TS 2.5 mg/mL
Procedure: as §1, §2
as §3, with “(cm^2). […]” for “(cm^2).”

[4] = Apparent oil-water partition coefficient, shake-flask method; format: physicochemical; conditions: n-octanol / phosphate buffer pH 1.2-9.0, 37 °C; Kow = log Co/(Ct−Co)
Procedure: The equilibrium partitioning of C1, C2, C3, C4, DC1, and DC2 between organic lipid and water (Kow) was determined in our study by the traditional shake-flask method (SFM). Briefly, 0.5 mL of each saponin standard working solution (100 µg·mL^−1 in water-saturated n-octanol) was accurately measured into 5 mL centrifuge tubes, and spiked with 0.5 mL of different phosphate buffer solutions (pH: 1.2, 2.0, 3.6, 5.8, 6.8, 7.4, 7.8, and 9.0), respectively. After vortex-mixing for 45 min, the tubes were kept in a temperature-stable horizontal shaking bath (37 °C) for 24 h, and then centrifuged at 13,000 rpm for 10 min. Two hundred microliters of organic supernatant solution was measured, diluted with 800 µL of methanol, and mixed well. Ten microliters of the final solution was injected into the HPLC system (detailed experimental conditions and method validation results were not shown) for determination of the drug concentration in the n-octanol phase. The Kow values of the six saponins were calculated according to the following mathematical expression:(3) Kow=logCo/Ct−Co where Ct is the total concentration of the drug, and Co is the concentration of the drug in n-octanol phase.

rat duodenum [5] = test: SPIP of MDQ-TS with or without EDTA (tight junction modulator); format: in vivo; conditions: MDQ-TS 2.5 mg/mL, EDTA 2.5 mmol·L^−1
Procedure: as §1, §2
as §3, with “(cm^2). […]” for “(cm^2).”

[6] = MDQ-TS form 1.25 mg·mL^−1, duodenum, symbol
[7] = MDQ-TS form 1.25 mg·mL^−1, ileum, symbol
[8] = MDQ-TS form 1.25 mg·mL^−1, jejunum, symbol
[9] = MDQ-TS form 2.5 mg·mL^−1, duodenum, n = 5
[10] = MDQ-TS form 2.5 mg·mL^−1, ileum, n = 5
[11] = MDQ-TS form 2.5 mg·mL^−1, jejunum, n = 5
[12] = MDQ-TS form 5.0 mg·mL^−1, duodenum, n = 5
[13] = MDQ-TS form 5.0 mg·mL^−1, ileum, n = 5
[14] = MDQ-TS form 5.0 mg·mL^−1, jejunum, n = 5
[15] = administrated in MDQ-TS form, summary bound (except DC2 in 1.25 mg·mL^−1 MDQ-TS group)
[16] = MDQ-TS form 1.25 mg·mL^−1, duodenum, n = 5
[17] = MDQ-TS form 1.25 mg·mL^−1, ileum, n = 5
[18] = MDQ-TS form 1.25 mg·mL^−1, jejunum, n = 5

Row | Molecule | Ka [1, 9] | Papp [1, 9] | Ka [1, 10] | Papp [1, 10] | Ka [1, 11] | Papp [1, 11] | Ka [1, 12] | Papp [1, 12] | Ka [1, 13] | Papp [1, 13] | Ka [1, 14] | Papp [1, 14] | Papp [1, 15] [cm/min] | Ka ([2]; duodenum) | Papp ([2]; duodenum) | Ka ([2]; ileum) | Papp ([2]; ileum) | Ka ([2]; jejunum) | Papp ([2]; jejunum) | intestinal absorption of monomers [2] | also measured
1 | C[C@@H]1O[C@@H](O[C@H]2[C@H](O[C@H]3[C@H](O[C@H]4CC[C@]5(C)[C@H]6CC=C7[C@H]8[C@](C(=O)O[C@@H]9O[C@H](CO)[C@@H](O)[C@H](O)[C@H]9O)(CC[C@H](C)[C@@]8(C)O)CC[C@@]7(C)[C@]6(C)CC[C@H]5C4(C)C)OC[C@@H](O)[C@@H]3O)O[C@H](CO)[C@@H](O)[C@@H]2O)[C@H](O)[C@H](O)[C@H]1O [DC2, ilexoside O] | 0.62 ± 0.13 ×10^−2 min^−1 | 0.16 ± 0.06 ×10^−2 cm·min^−1 | 1.54 ± 0.85 ×10^−2 min^−1 | 0.19 ± 0.08 ×10^−2 cm·min^−1 | 1.23 ± 0.46 ×10^−2 min^−1 | 0.21 ± 0.08 ×10^−2 cm·min^−1 | 1.27 ± 0.44 ×10^−2 min^−1 | 0.25 ± 0.16 ×10^−2 cm·min^−1 | 1.14 ± 0.45 ×10^−2 min^−1 | 0.19 ± 0.07 ×10^−2 cm·min^−1 | 1.73 ± 0.66 ×10^−2 min^−1 | 0.26 ± 0.17 ×10^−2 cm·min^−1 | > 0.0012 | - | - | - | - | - | - | could not be absorbed by small intestine at all; also recorded: no absorption; also recorded: could not be absorbed by the gastrointestinal tract at all | Ka [1, 6]: -; Papp [1, 6]: -; Ka [1, 7]: -; Papp [1, 7]: -; Ka [1, 8]: -; Papp [1, 8]: -; intestinal absorption in Verapamil added group (rat duodenum [3]; verapamil 200 μmol·L^−1, result in words): could not be absorbed by the small intestine at all; apparent oil-water partition coefficient (Kow) [4]: −1 to 2; Ka increase in comparison with non-EDTA added group (rat duodenum [5]): ~3.0 fold; Papp increase in comparison with non-EDTA added group (rat duodenum [5]): ~2.1 fold
2 | ilexsaponin B3 [DC1] | 1.76 ± 0.44 ×10^−2 min^−1 | 0.34 ± 0.08 ×10^−2 cm·min^−1 | 1.65 ± 0.33 ×10^−2 min^−1 | 0.16 ± 0.07 ×10^−2 cm·min^−1 | 1.99 ± 0.49 ×10^−2 min^−1 | 0.35 ± 0.08 ×10^−2 cm·min^−1 | 1.53 ± 0.55 ×10^−2 min^−1 | 0.30 ± 0.13 ×10^−2 cm·min^−1 | 1.21 ± 0.58 ×10^−2 min^−1 | 0.21 ± 0.11 ×10^−2 cm·min^−1 | 2.05 ± 0.72 ×10^−2 min^−1 | 0.32 ± 0.19 ×10^−2 cm·min^−1 | > 0.0012 | - | - | - | - | - | - | could not be absorbed by small intestine at all; also recorded: no absorption; also recorded: could not be absorbed by the gastrointestinal tract at all | Ka [1, 16]: 0.56 ± 0.17 ×10^−2 min^−1; Papp [1, 16]: 0.13 ± 0.05 ×10^−2 cm·min^−1; Ka [1, 17]: 0.59 ± 0.35 ×10^−2 min^−1; Papp [1, 17]: 0.22 ± 0.13 ×10^−2 cm·min^−1; Ka [1, 18]: 0.46 ± 0.21 ×10^−2 min^−1; Papp [1, 18]: 0.23 ± 0.15 ×10^−2 cm·min^−1; Ka increase in comparison with non-Verapamil added group (rat duodenum [3]; verapamil 200 μmol·L^−1): ~2.9 fold; Papp increase in comparison with non-Verapamil added group (rat duodenum [3]; verapamil 200 μmol·L^−1): ~3.4 fold; apparent oil-water partition coefficient (Kow) [4]: −1 to 2; Ka increase in comparison with non-EDTA added group (rat duodenum [5]): ~1.4 fold; Papp increase in comparison with non-EDTA added group (rat duodenum [5]): ~1.4 fold
